How the values were obtained:
Homo sapiens = organism: Homo sapiens; experiment: In vitro inhibition of platelet aggregation in human platelet-rich plasma induced by ADP; assay type: functional
[1] = target: Integrin alpha-IIb/beta-3 (Homo sapiens, UniProt P05106+P08514); experiment: In vitro binding affinity against human alpha IIb beta-3 integrin; assay type: protein-complex assay
Integrin alpha-IIb/beta-3, sequence (P05106 27-788 limits assumed): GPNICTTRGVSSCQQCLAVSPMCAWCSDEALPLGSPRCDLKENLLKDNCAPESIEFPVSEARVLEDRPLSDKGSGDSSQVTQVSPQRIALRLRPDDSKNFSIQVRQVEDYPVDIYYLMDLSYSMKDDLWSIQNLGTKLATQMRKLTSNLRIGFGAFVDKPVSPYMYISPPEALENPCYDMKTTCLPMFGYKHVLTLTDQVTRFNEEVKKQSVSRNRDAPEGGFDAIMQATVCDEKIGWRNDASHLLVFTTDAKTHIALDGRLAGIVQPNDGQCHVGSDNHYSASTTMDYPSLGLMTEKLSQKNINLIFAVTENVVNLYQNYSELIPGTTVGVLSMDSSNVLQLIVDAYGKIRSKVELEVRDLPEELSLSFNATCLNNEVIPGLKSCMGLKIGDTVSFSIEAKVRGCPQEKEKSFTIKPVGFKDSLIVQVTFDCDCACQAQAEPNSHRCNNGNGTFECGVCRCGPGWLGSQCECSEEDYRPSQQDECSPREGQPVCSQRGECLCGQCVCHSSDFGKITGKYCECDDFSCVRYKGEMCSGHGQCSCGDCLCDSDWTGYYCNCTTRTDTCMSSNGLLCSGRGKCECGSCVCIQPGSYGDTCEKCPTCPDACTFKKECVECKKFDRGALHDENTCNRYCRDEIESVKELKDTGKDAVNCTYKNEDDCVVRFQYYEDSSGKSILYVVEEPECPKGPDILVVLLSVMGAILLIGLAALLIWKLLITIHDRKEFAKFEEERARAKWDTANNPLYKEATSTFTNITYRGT
Integrin alpha-IIb/beta-3, sequence (P08514 32-887 limits assumed): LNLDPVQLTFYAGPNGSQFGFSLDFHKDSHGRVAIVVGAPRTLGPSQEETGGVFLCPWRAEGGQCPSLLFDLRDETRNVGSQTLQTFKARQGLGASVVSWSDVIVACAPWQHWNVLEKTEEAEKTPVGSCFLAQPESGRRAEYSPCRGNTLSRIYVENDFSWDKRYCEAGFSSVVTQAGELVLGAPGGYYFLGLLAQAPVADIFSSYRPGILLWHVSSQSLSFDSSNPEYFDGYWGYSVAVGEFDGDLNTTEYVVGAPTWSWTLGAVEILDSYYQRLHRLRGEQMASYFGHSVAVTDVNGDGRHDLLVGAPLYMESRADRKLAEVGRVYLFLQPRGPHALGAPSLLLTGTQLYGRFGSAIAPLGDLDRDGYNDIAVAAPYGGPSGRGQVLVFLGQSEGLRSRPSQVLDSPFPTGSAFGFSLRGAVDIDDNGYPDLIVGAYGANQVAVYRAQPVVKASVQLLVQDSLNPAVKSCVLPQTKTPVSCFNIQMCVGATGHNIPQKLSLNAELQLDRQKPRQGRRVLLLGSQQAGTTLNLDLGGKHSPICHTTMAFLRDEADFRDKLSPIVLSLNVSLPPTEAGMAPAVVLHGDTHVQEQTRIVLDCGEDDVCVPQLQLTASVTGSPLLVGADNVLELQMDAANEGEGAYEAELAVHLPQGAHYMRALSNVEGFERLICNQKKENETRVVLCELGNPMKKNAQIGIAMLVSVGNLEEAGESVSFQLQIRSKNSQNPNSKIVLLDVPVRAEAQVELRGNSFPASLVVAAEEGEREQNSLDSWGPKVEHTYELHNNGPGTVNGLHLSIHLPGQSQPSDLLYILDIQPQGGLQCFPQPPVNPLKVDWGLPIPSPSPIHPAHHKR
Integrin alpha-IIb/beta-3, sequence (P08514 891-1039 limits assumed): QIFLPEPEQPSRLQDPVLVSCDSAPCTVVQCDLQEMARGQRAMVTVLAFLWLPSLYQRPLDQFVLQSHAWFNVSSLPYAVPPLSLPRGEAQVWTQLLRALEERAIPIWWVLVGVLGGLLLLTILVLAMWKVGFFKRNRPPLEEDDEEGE

| Compound | IC50 (Homo sapiens) [nM] | Ki [1] [nM] |
| --- | --- | --- |
| N=C(N)c1ccc(NC(=O)c2ccc3c(c2)NC(CC(=O)O)C(=O)N(CCc2ccccc2)C3)cc1 (configuration not stated) | 8 | – |
| CN(CCC1CCNCC1)C(=O)c1ccc2c(c1)CC(CC(=O)O)C(=O)N(C)C2 (configuration not stated) | 33 | 1.5 |
| CN(CCC1CCNCC1)C(=O)c1ccc2c(c1)CC(CC(=O)O)C(=O)N(C1CCCCC1)C2 (configuration not stated) | 49 | 1.3 |
| CN(CCC1CCNCC1)C(=O)c1ccc2c(c1)CC(CC(=O)O)C(=O)N(CCc1ccccc1)C2 (configuration not stated) | 13 | 3 |
| CN(CCC1CCNCC1)C(=O)c1ccc2c(c1)CC(CC(=O)O)C(=O)N(CCC1CCCCC1)C2 (configuration not stated) | 27 | 2 |
| CC(C)CCN1Cc2ccc(C(=O)N(C)CCC3CCNCC3)cc2CC(CC(=O)O)C1=O (configuration not stated) | 32 | 1.5 |
| CN(C(=O)c1ccc2c(c1)CC(CC(=O)O)C(=O)N(CCc1ccccc1)C2)c1ccc(C(=N)N)cc1 (configuration not stated) | 12 | 1.5 |
| CN(CCC1CCNCC1)C(=O)c1ccc2c(c1)CC(CC(=O)O)C(=O)N(CCc1ccc(F)cc1)C2 (configuration not stated) | 27 | 1.7 |
| CN(CCC1CCNCC1)C(=O)c1ccc2c(c1)CC(CC(=O)O)C(=O)N(CCC(C)(C)C)C2 (configuration not stated) | 27 | 2 |
| CN(C(=O)c1ccc2c(c1)NC(CC(=O)O)C(=O)N(CCc1ccccc1)C2)c1ccc(C(=N)N)cc1 (configuration not stated) | 28 | – |

Further compounds by falling IC50 (Homo sapiens), results first:

| IC50 (Homo sapiens) [nM] | Ki [1] [nM] | Compound |
| --- | --- | --- |
| 7790 | 650 | CN(CCC1CCNCC1)C(=O)c1ccc2c(c1)CC(CCC(=O)O)C(=O)N(CCc1ccccc1)C2 (configuration not stated) |
| 71 | 3.2 | CN(CCC1CCNCC1)C(=O)c1ccc2c(c1)CC(CC(=O)O)C(=O)NC2 (configuration not stated) |
| 37 | 2 | CC(C)N1Cc2ccc(C(=O)N(C)CCC3CCNCC3)cc2CC(CC(=O)O)C1=O (configuration not stated) |
| 36 | 1 | CN(CCC1CCNCC1)C(=O)c1ccc2c(c1)CC(CC(=O)O)C(=O)N(Cc1ccccc1)C2 (configuration not stated) |
| 31 | 1.5 | CCCCN1Cc2ccc(C(=O)N(C)CCC3CCNCC3)cc2CC(CC(=O)O)C1=O (configuration not stated) |
| 18 | 2.5 | CN(CCC1CCNCC1)C(=O)c1ccc2c(c1)CC(CC(=O)O)C(=O)N(CCc1cccs1)C2 (configuration not stated) |
| 8 | 2 | CN(CCC1CCNCC1)C(=O)c1ccc2c(c1)CC(CC(=O)O)C(=O)N(CCCCCc1ccccc1)C2 (configuration not stated) |
